Measurements from patent US8859549B2, “Potassium channel modulators” (AbbVie, Inc., priority 2011, dated 2014).

Biological target: T1, KCNQ 2/3 channels (Homo sapiens, UniProt O43525+O43526)
T1 construct: expressed in transfected cells; host or cells: HEK293
Test: KCNQ 2/3 channel activation, thallium flux FLIPR assay (BTC-AM dye)
Type: cell-based
Conditions: for Emax: HEK293, maximum response relative to the response of 10 μM retigabine (set at 100%), read-out: % MAX; for EC50: HEK293 cells stably expressing human KCNQ2 and KCNQ3 subunits, thallium-induced fluorescence, 4 min compound incubation
Method in brief: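 HEK293 cells stably expressing human KCNQ2/KCNQ3 were loaded with BTC-AM (3 μg/mL, 2 h, RT) and preincubated with compound for 4 min in pH 7.3 gluconate buffer containing 0.1 mM ouabain. Flux was triggered by 6 mM TlNO3/10 mM K2SO4 and read for 3 min; EC50 came from summed responses over basal, with maximum relative to 10 μM retigabine (100%).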

Structure (SMILES)	Emax (HEK293 KCNQ2/KCNQ3 cells) [%]	EC50 [nM]	% MAX (maximum response relative to the response of 10 μM retigabine (set at 100%), HEK293 KCNQ2/KCNQ3 cells) [%]
O=C(Cc1c(Cl)cccc1Cl)Nn1nc(N2CCOCC2)c2ccccc2c1=O [Example 178, 2-(2,6-dichlorophenyl)-N-[4-(morpholin-4-yl)-1-oxophthalazin-2(1H)-yl]acetamide]	-1.83	–	–
CS(=O)(=O)c1ccc(CC(=O)Nn2nc(Sc3ccccc3)c3ccccc3c2=O)cc1 [Example 181, 2-[4-(methylsulfonyl)phenyl]-N-[1-oxo-4-(phenylsulfanyl)phthalazin-2(1H)-yl]acetamide]	92.6	5180	–
CCC(C)(C)OC(=O)NCc1nn(NC(=O)Cc2ccc(Cl)cc2)c(=O)c2ccccc12 [Example 182, 2-methylbutan-2-yl[(3-{[(4-chlorophenyl)acetyl]amino}-4-oxo-3,4-dihydrophthalazin-1-yl)methyl]carbamate]	63.8	1320	–
COC(=O)N[C@H](C(=O)NCc1nn(NC(=O)Cc2ccc(Cl)cc2)c(=O)c2ccccc12)C(C)C [Example 183, methyl[(2S)-1-{[(3-{[(4-chlorophenyl)acetyl]amino}-4-oxo-3,4-dihydrophthalazin-1-yl)methyl]amino}-3-methyl-1-oxobutan-2-yl]carbamate]	5.96	–	–
CC(C)(C)COC(=O)NCc1nn(NC(=O)Cc2ccc(Cl)cc2)c(=O)c2ccccc12 [Example 184, 2,2-dimethylpropyl[(3-{[(4-chlorophenyl)acetyl]amino}-4-oxo-3,4-dihydrophthalazin-1-yl)methyl]carbamate]	62.7	1320	–
CC(C)COC(=O)NCc1nn(NC(=O)Cc2ccc(Cl)cc2)c(=O)c2ccccc12 [Example 185, 2-methylpropyl[(3-{[(4-chlorophenyl)acetyl]amino}-4-oxo-3,4-dihydrophthalazin-1-yl)methyl]carbamate]	44.6	1240	–
CC(C)[C@H]1CC[C@H](C)C[C@@H]1OC(=O)NCc1nn(NC(=O)Cc2ccc(Cl)cc2)c(=O)c2ccccc12 [Example 186, (1S,2R,5S)-5-methyl-2-(propan-2-yl)cyclohexyl[(3-{[(4-chlorophenyl)acetyl]amino}-4-oxo-3,4-dihydrophthalazin-1-yl)methyl]carbamate]	–	–	11.8
O=C(Cc1ccc(Cl)cc1)Nn1nc(CNC(=O)OC2CCCC2)c2ccccc2c1=O [Example 187, cyclopentyl[(3-{[(4-chlorophenyl)acetyl]amino}-4-oxo-3,4-dihydrophthalazin-1-yl)methyl]carbamate]	32	–	–
O=C(Cc1ccc(Cl)cc1)Nn1nc(CNC(=O)OCc2ccccc2)c2ccccc2c1=O [Example 188, benzyl[(3-{[(4-chlorophenyl)acetyl]amino}-4-oxo-3,4-dihydrophthalazin-1-yl)methyl]carbamate]	15.3	–	–
CS(=O)(=O)c1ccc(CC(=O)Nn2nc(S(=O)(=O)c3ccccc3)c3ccccc3c2=O)cc1 [Example 189, 2-[4-(methylsulfonyl)phenyl]-N-[1-oxo-4-(phenylsulfonyl)phthalazin-2(1H)-yl]acetamide]	37	–	–
O=C(Cc1ccc(Cl)cc1)Nn1nc(Sc2ccncc2)c2ccccc2c1=O [Example 191, 2-(4-chlorophenyl)-N-[1-oxo-4-(pyridin-4-ylsulfanyl)phthalazin-2(1H)-yl]acetamide]	78.5	1320	–
CC(C)(CC(=O)Nn1nc(S(=O)(=O)c2ccccc2)c2ccccc2c1=O)c1ccccc1 [Example 194, 3-methyl-N-[1-oxo-4-(phenylsulfonyl)phthalazin-2(1H)-yl]-3-phenylbutanamide]	63.4	1780	–
O=C(Cc1ccc(Cl)cc1)Nn1nc(S(=O)(=O)c2cc[n+]([O-])cc2)c2ccccc2c1=O [Example 196, 2-(4-chlorophenyl)-N-{4-[(1-oxidopyridin-4-yl)sulfonyl]-1-oxophthalazin-2(1H)-yl}acetamide]	16.6	–	–
COc1cccc(CC(=O)Nn2nc(S(=O)(=O)c3ccccc3)c3ccccc3c2=O)c1 [Example 205, 2-(3-methoxyphenyl)-N-[1-oxo-4-(phenylsulfonyl)phthalazin-2(1H)-yl]acetamide]	71.8	938	–
O=C(Cc1cccc(C(F)(F)F)c1)Nn1nc(S(=O)(=O)c2ccccc2)c2ccccc2c1=O [Example 208, N-[1-oxo-4-(phenylsulfonyl)phthalazin-2(1H)-yl]-2-[3-(trifluoromethyl)phenyl]acetamide]	33.3	–	–
O=C(Cc1ccc(Cl)cc1)Nn1nc(S(=O)(=O)Cc2ccccc2)c2ccccc2c1=O [Example 216, N-[4-(benzylsulfonyl)-1-oxophthalazin-2(1H)-yl]-2-(4-chlorophenyl)acetamide]	67.1	1840	–

The next lines start with the values.

Emax (HEK293 KCNQ2/KCNQ3 cells) [%]	EC50 [nM]	% MAX (maximum response relative to the response of 10 μM retigabine (set at 100%), HEK293 KCNQ2/KCNQ3 cells) [%]	Structure (SMILES)
103	116	–	Cc1ccc(S(=O)(=O)c2nn(NC(=O)Cc3ccc(Cl)cc3)c(=O)c3ccccc23)cc1 [Example 192, 2-(4-chlorophenyl)-N-{4-[(4-methylphenyl)sulfonyl]-1-oxophthalazin-2(1H)-yl}acetamide]
87.9	79.2	–	O=C(Cc1ccc(F)cc1)Nn1nc(S(=O)(=O)c2ccccc2)c2ccccc2c1=O [Example 193, 2-(4-fluorophenyl)-N-[1-oxo-4-(phenylsulfonyl)phthalazin-2(1H)-yl]acetamide]
96.9	432	–	O=C(Cc1ccc(Cl)cc1)Nn1nc(Sc2ccc(Br)cc2)c2ccccc2c1=O [Example 195, N-{4-[(4-bromophenyl)sulfanyl]-1-oxophthalazin-2(1H)-yl}-2-(4-chlorophenyl)acetamide]
120	49	–	O=C(Cc1cc(F)cc(F)c1)Nn1nc(Sc2ccc(Br)cc2)c2ccccc2c1=O [Example 197, N-{4-[(4-bromophenyl)sulfanyl]-1-oxophthalazin-2(1H)-yl}-2-(3,5-difluorophenyl)acetamide]
120	134	–	CC(C)(C)Sc1nn(NC(=O)Cc2ccc(Cl)cc2)c(=O)c2ccccc12 [Example 198, N-[4-(tert-butylsulfanyl)-1-oxophthalazin-2(1H)-yl]-2-(4-chlorophenyl)acetamide]
79.2	48.9	–	O=C(Cc1ccc(Cl)cc1)Nn1nc(S(=O)(=O)c2ccc(Br)cc2)c2ccccc2c1=O [Example 199, N-{4-[(4-bromophenyl)sulfonyl]-1-oxophthalazin-2(1H)-yl}-2-(4-chlorophenyl)acetamide]
92.3	738	–	CC(C)(C)S(=O)(=O)c1nn(NC(=O)Cc2ccc(Cl)cc2)c(=O)c2ccccc12 [Example 201, N-[4-(tert-butylsulfonyl)-1-oxophthalazin-2(1H)-yl]-2-(4-chlorophenyl)acetamide]
106	64.7	–	O=C(Cc1cc(F)cc(F)c1)Nn1nc(S(=O)(=O)c2ccc(Br)cc2)c2ccccc2c1=O [Example 202, N-{4-[(4-bromophenyl)sulfonyl]-1-oxophthalazin-2(1H)-yl}-2-(3,5-difluorophenyl)acetamide]
85	621	–	O=C(Cc1ccc(Cl)cc1)Nn1nc(S(=O)(=O)c2ccncc2)c2ccccc2c1=O [Example 203, 2-(4-chlorophenyl)-N-[1-oxo-4-(pyridin-4-ylsulfonyl)phthalazin-2(1H)-yl]acetamide]
99.3	69.3	–	O=C(Cc1ccc(Br)cc1)Nn1nc(S(=O)(=O)c2ccccc2)c2ccccc2c1=O [Example 206, 2-(4-bromophenyl)-N-[1-oxo-4-(phenylsulfonyl)phthalazin-2(1H)-yl]acetamide]
69.9	306	–	Cc1cccc(CC(=O)Nn2nc(S(=O)(=O)c3ccccc3)c3ccccc3c2=O)c1 [Example 207, 2-(3-methylphenyl)-N-[1-oxo-4-(phenylsulfonyl)phthalazin-2(1H)-yl]acetamide]
80.9	77.4	–	O=C(Cc1cccc(Cl)c1)Nn1nc(S(=O)(=O)c2ccccc2)c2ccccc2c1=O [Example 209, 2-(3-chlorophenyl)-N-[1-oxo-4-(phenylsulfonyl)phthalazin-2(1H)-yl]acetamide]
154	164	–	O=C(CC12CC3CC(CC1C3)C2)Nn1nc(N2CCOCC2)c2ccccc2c1=O [Example 210, 2-(hexahydro-2,5-methanopentalen-3a(1H)-yl)-N-[4-(morpholin-4-yl)-1-oxophthalazin-2(1H)-yl]acetamide]
137	201	–	O=C(CC12CC3CC(CC1C3)C2)Nn1nc(-c2ccc(C(F)(F)F)nc2)c2ccccc2c1=O [Example 211, 2-(hexahydro-2,5-methanopentalen-3a(1H)-yl)-N-{1-oxo-4-[6-(trifluoromethyl)pyridin-3-yl]phthalazin-2(1H)-yl}acetamide]
109	152	–	O=C(Cc1cc(F)cc(F)c1)Nn1nc(SCc2ccccc2)c2ccccc2c1=O [Example 212, N-[4-(benzylsulfanyl)-1-oxophthalazin-2(1H)-yl]-2-(3,5-difluorophenyl)acetamide]
123	30.3	–	O=C(Cc1ccc(Cl)cc1)Nn1nc(SCc2ccccc2)c2ccccc2c1=O [Example 213, N-[4-(benzylsulfanyl)-1-oxophthalazin-2(1H)-yl]-2-(4-chlorophenyl)acetamide]
45	916	–	O=C(Cc1cc(F)cc(F)c1)Nn1nc(S(=O)(=O)Cc2ccccc2)c2ccccc2c1=O [Example 215, N-[4-(benzylsulfonyl)-1-oxophthalazin-2(1H)-yl]-2-(3,5-difluorophenyl)acetamide]
151	58.3	–	O=C(CC12CC3CC(CC1C3)C2)Nn1nc(S(=O)(=O)c2ccccc2)c2ccccc2c1=O [Example 218, 2-(hexahydro-2,5-methanopentalen-3a(1H)-yl)-N-[1-oxo-4-(phenylsulfonyl)phthalazin-2(1H)-yl]acetamide]
